Experimental data from the NIST ThermoML archive (doi:10.1016/j.fluid.2016.01.013).

Experiment: xn = mol fraction of the nth substance listed
Conditions: for kinematic viscosity: Liquid, Surface laser light scattering (SLLS)

C=C(F)C(F)(F)F [2,3,3,3-tetrafluoro-1-propene] + FCC(F)(F)F
Conditions | kinematic viscosity [m2/s] | surface tension liquid-gas [mN/m]
293.15 K, x2 = 0.807 | 1.62e-07 | 8.25
293.2 K, x2 = 0.6018 | 1.61e-07 | 7.8
293.22 K, x2 = 0.3196 | 1.49e-07 | 7.38
303.13 K, x2 = 0.6018 | 1.43e-07 | 6.59
303.15 K, x2 = 0.807 | 1.47e-07 | 6.99
303.21 K, x2 = 0.3196 | 1.35e-07 | 6.14
313.12 K, x2 = 0.3196 | 1.25e-07 | 4.93
313.15 K, x2 = 0.6018 | 1.29e-07 | 5.41
323.1 K, x2 = 0.3196 | 1.15e-07 | 3.95
323.15 K, x2 = 0.807 | 1.26e-07 | 4.55
323.16 K, x2 = 0.6018 | 1.22e-07 | 4.24
333.12 K, x2 = 0.6018 | 1.12e-07 | 3.15
333.15 K, x2 = 0.807 | 1.13e-07 | 3.41
333.16 K, x2 = 0.3196 | 1.07e-07 | 2.87
343.14 K, x2 = 0.807 | 1.04e-07 | 2.39
343.16 K, x2 = 0.6018 | 1e-07 | 2.11
343.19 K, x2 = 0.3196 | 9.77e-08 | 1.88
353.1 K, x2 = 0.807 | 9.22e-08 | 1.31
353.16 K, x2 = 0.3196 | 8.7e-08 | 1
353.19 K, x2 = 0.6018 | 8.9e-08 | 1.17
358.15 K, x2 = 0.3196 | 8.36e-08 | 0.6
363.16 K, x2 = 0.807 | 8.21e-08 | 0.53
363.19 K, x2 = 0.6018 | 7.95e-08 | 0.37

F/C=C/C(F)(F)F [trans-1,3,3,3-tetrafluoropropene] + FCC(F)(F)F
x2 = 0.4446
Conditions | kinematic viscosity [m2/s] | surface tension liquid-gas [mN/m]
293.1 K | 1.78e-07 | 8.89
303.16 K | 1.62e-07 | 7.58
313.12 K | 1.45e-07 | 6.34
323.11 K | 1.3e-07 | 5.16
333.14 K | 1.21e-07 | 3.98
343.14 K | 1.12e-07 | 2.92
353.1 K | 1.02e-07 | 1.92
363.1 K | 9e-08 | 1.01
369.15 K | 8.63e-08 | 0.53
